Measurements as given in US11554171B2, “Compounds and methods for the targeted degradation of bromodomain-containing proteins” (Arvinas Operations, Inc., priority 2015, dated 2023).

Test system: c-myc in 22RV-1 cells
Assay: Human c-myc ELISA assay
Assay type: cell-based
Conditions: Homo sapiens; for Emax: 22Rv1, 18 h, read-out: Degradation of BRD4: Maximum inhibition (%) c-Myc ELISA in 22RV1 cells; for DC50: 22Rv1, read-out: Degradation of BRD4: DC50 (uM) c-Myc ELISA in 22RV1 cells
In short: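 c-myc levels measured by ELISA in RIPA lysates of 22RV-1 cells, calibrated with a 333-0 pg/ml standard curve. Lysates came from cells exposed for 18 h to an 8-point, 1:3 dose series starting at 300 nM or 1 μM final in 0.1% DMSO. Suppression potency given as DC50.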

| DC50 [µM] | SMILES | Emax [%] |
| --- | --- | --- |
| 0.01 to 0.1 | Cc1ncsc1-c1ccc(CNC(=O)[C@@H]2C[C@@H](O)CN2C(=O)[C@@H](NC(=O)Cc2ccc(OCCNC(=O)C[C@@H]3N=C(c4ccc(Cl)cc4)c4c(sc(C)c4C)-n4c(C)nnc43)cc2)C(C)(C)C)cc1 [Example 80, (2S,4R)-1-[(2S)-2-{2-[4-(2-{2-[(9S)-7-(4-chlorophenyl)-4,5,13-trimethyl-3-thia-1,8,11,12-tetraazatricyclo[8.3.0.0^2,^6]trideca-2(6),4,7,10,12-pentaen-9-yl]acetamido}ethoxy)phenyl]acetamido}-3,3-dimethylbutanoyl]-4-hydroxy-N-{[4-(4-methyl-1,3-thiazol-5-yl)phenyl]methyl}pyrrolidine-2-carboxamide] | 97.5 |
| 0.01 to 0.1 | Cc1ncsc1-c1ccc(CNC(=O)[C@@H]2C[C@@H](O)CN2C(=O)[C@@H](NC(=O)COCCOc2cccc(NC(=O)C[C@@H]3N=C(c4ccc(Cl)cc4)c4c(sc(C)c4C)-n4c(C)nnc43)c2)C(C)(C)C)cc1 [Example 81] | 99 |
| 0.01 to 0.1 | Cc1ncsc1-c1ccc(CNC(=O)[C@@H]2C[C@@H](O)CN2C(=O)[C@@H](NC(=O)COCCCCCCNC(=O)C[C@@H]2N=C(c3ccc(Cl)cc3)c3c(sc(C)c3C)-n3c(C)nnc32)C(C)(C)C)cc1 [Example 82] | 100 |
| 0.01 to 0.1 | Cc1ncsc1-c1ccc(CNC(=O)[C@@H]2C[C@@H](O)CN2C(=O)[C@@H](NC(=O)COCCOCCOCCOc2ccc3c(c2)c2c(C(N)=O)cc(-c4c(C)noc4C)cc2n3Cc2ccccc2)C(C)(C)C)cc1 [Example 83] | 98 |
| < 0.01 | Cc1ncsc1-c1ccc(CNC(=O)[C@@H]2C[C@@H](O)CN2C(=O)[C@@H](NC(=O)CCc2cccc(OCCNC(=O)C[C@@H]3N=C(c4ccc(Cl)cc4)c4c(sc(C)c4C)-n4c(C)nnc43)c2)C(C)(C)C)cc1 [Example 84] | 100 |
| < 0.01 | Cc1ncsc1-c1ccc([C@H](C)NC(=O)[C@@H]2C[C@@H](O)CN2C(=O)[C@@H](NC(=O)CCc2cccc(OCCNC(=O)C[C@@H]3N=C(c4ccc(Cl)cc4)c4c(sc(C)c4C)-n4c(C)nnc43)c2)C(C)(C)C)cc1 [Example 85] | 100 |
| 0.1 to 1 | Cc1ncsc1-c1ccc(CNC(=O)[C@@H]2C[C@@H](O)CN2C(=O)[C@@H](NC(=O)COCCn2cc(-c3ccc([C@H](C)NC(=O)C[C@@H]4N=C(c5ccc(Cl)cc5)c5c(sc(C)c5C)-n5c(C)nnc54)cc3)cn2)C(C)(C)C)cc1 [Example 86] | 80 |
| 0.01 to 0.1 | Cc1ncsc1-c1ccc(CNC(=O)[C@@H]2C[C@@H](O)CN2C(=O)[C@@H](NC(=O)COc2ccccc2C(=O)N2CC[C@H](NC(=O)C[C@@H]3N=C(c4ccc(Cl)cc4)c4c(sc(C)c4C)-n4c(C)nnc43)C2)C(C)(C)C)cc1 [Example 87] | 96.4 |
| 0.1 to 1 | Cc1ncsc1-c1ccc(CNC(=O)[C@@H]2C[C@@H](O)CN2C(=O)[C@@H](NC(=O)COCCC(=O)N2CC[C@H](NC(=O)C[C@@H]3N=C(c4ccc(Cl)cc4)c4c(sc(C)c4C)-n4c(C)nnc43)C2)C(C)(C)C)cc1 [Example 88] | 85.9 |
| 0.01 to 0.1 | Cc1ncsc1-c1ccc(CNC(=O)C2C[C@@H](O)CN2C(=O)[C@@H](NC(=O)COCCOCCOCCOCCOc2ccc3c(c2)c2c(C(N)=O)cc(-c4c(C)noc4C)cc2n3Cc2ccccc2)C(C)(C)C)cc1 (some centres unmarked) [Example 89, 9-Benzyl-2-(dimethyl-1,2-oxazol-4-yl)-6{[1-({1-[4-hydroxy-2-({[4-(4-methyl-1,3-thiazol-5-yl)phenyl]methyl}carbamoyl)pyrrolidin-1-yl]-3,3-dimethyl-1-oxobutan-2-yl}carbamoyl)-2,5,8,11-tetraoxatridecan-13-yl]oxy}-9H-carbazole-4-carboxamide] | 99.5 |
| < 0.01 | Cc1ncsc1-c1ccc(CNC(=O)[C@@H]2C[C@@H](O)CN2C(=O)C(c2cc(OCCCCCNC(=O)C[C@@H]3N=C(c4ccc(Cl)cc4)c4c(sc(C)c4C)-n4c(C)nnc43)no2)C(C)C)cc1 (some centres unmarked) [Example 90] | 100 |
| > 1 | Cc1ncsc1-c1ccc(CNC(=O)[C@@H]2C[C@@H](O)CN2C(=O)[C@@H](NC(=O)c2ccn(CCOCCNC(=O)C[C@@H]3N=C(c4ccc(Cl)cc4)c4c(sc(C)c4C)-n4c(C)nnc43)n2)C(C)(C)C)cc1 [Example 91] | < 5 |
| 0.1 to 1 | Cc1ncsc1-c1ccc(CNC(=O)[C@@H]2C[C@@H](O)CN2C(=O)[C@@H](NC(=O)Cc2ccc(OCCNC(=O)C[C@@H]3N=C(c4ccc(Cl)cc4)c4c(sc(C)c4C)-n4c(C)nnc43)cn2)C(C)(C)C)cc1 [Example 92] | 91.1 |
| 0.1 to 1 | Cc1ncsc1-c1ccc(CNC(=O)[C@@H]2C[C@@H](O)CN2C(=O)[C@@H](NC(=O)Cc2ccc(N3CC[C@H](NC(=O)C[C@@H]4N=C(c5ccc(Cl)cc5)c5c(sc(C)c5C)-n5c(C)nnc54)C3)cn2)C(C)(C)C)cc1 [Example 93] | 74.2 |
| < 0.01 | Cc1ncsc1-c1ccc(CNC(=O)C2C[C@@H](O)CN2C(=O)[C@@H](NC(=O)COCCCOCCOc2cccc(NC(=O)C[C@@H]3N=C(c4ccc(Cl)cc4)c4c(sc(C)c4C)-n4c(C)nnc43)c2)C(C)(C)C)cc1 (some centres unmarked) [Example 94] | 98.5 |
| < 0.01 | Cc1ncsc1-c1ccc(CNC(=O)[C@@H]2C[C@@H](O)CN2C(=O)[C@@H](NC(=O)COCc2ccc(Oc3cccc(NC(=O)C[C@@H]4N=C(c5ccc(Cl)cc5)c5c(sc(C)c5C)-n5c(C)nnc54)c3)cc2)C(C)(C)C)cc1 [Example 95] | 99.5 |

| DC50 [µM] | SMILES | Emax [%] |
| --- | --- | --- |
| 0.1 to 1 | Cc1ncsc1-c1ccc(CNC(=O)C2C[C@@H](O)CN2C(=O)[C@@H](NC(=O)c2cn3cc(OCCNC(=O)C[C@@H]4N=C(c5ccc(Cl)cc5)c5c(sc(C)c5C)-n5c(C)nnc54)ccc3n2)C(C)(C)C)cc1 (some centres unmarked) [Example 96] | 67.9 |
| < 0.01 | Cc1ncsc1-c1ccc(CNC(=O)[C@@H]2C[C@@H](O)CN2C(=O)[C@@H](NC(=O)Cc2ccc3cc(CCNC(=O)C[C@@H]4N=C(c5ccc(Cl)cc5)c5c(sc(C)c5C)-n5c(C)nnc54)oc3c2)C(C)(C)C)cc1 [Example 97] | 100 |
| 0.01 to 0.1 | Cc1ncsc1-c1ccc(CNC(=O)[C@@H]2C[C@@H](O)CN2C(=O)[C@@H](NC(=O)COCCOCCOCCNC(=O)CC2N=C(c3ccc(Cl)cc3)c3c(sc(C)c3C)-n3c(C)nnc32)C(C)(C)C)cc1 (some centres unmarked) [Example 98] | 100 |
| 0.1 to 1 | Cc1ncsc1-c1ccc(CNC(=O)[C@@H]2C[C@@H](O)CN2C(=O)[C@@H](NC(=O)c2cn3ccc(OCCCNC(=O)C[C@@H]4N=C(c5ccc(Cl)cc5)c5c(sc(C)c5C)-n5c(C)nnc54)cc3n2)C(C)(C)C)cc1 [Example 99] | 67 |
| 0.01 to 0.1 | Cc1ncsc1-c1ccc(CNC(=O)[C@@H]2C[C@@H](O)CN2C(=O)[C@@H](NC(=O)COCCCSCCNC(=O)C[C@@H]2N=C(c3ccc(Cl)cc3)c3c(sc(C)c3C)-n3c(C)nnc32)C(C)(C)C)cc1 [Example 100] | 99 |
| 0.1 to 1 | Cc1ncsc1-c1ccc(CNC(=O)[C@@H]2C[C@@H](O)CN2C(=O)[C@@H](NC(=O)COCCCS(=O)(=O)CCNC(=O)C[C@@H]2N=C(c3ccc(Cl)cc3)c3c(sc(C)c3C)-n3c(C)nnc32)C(C)(C)C)cc1 [Example 101] | 88.3 |
| > 1 | Cc1ncsc1-c1ccc(CNC(=O)[C@@H]2C[C@@H](O)CN2C(=O)[C@@H](NC(=O)CCN2CCN(CCCNC(=O)C[C@@H]3N=C(c4ccc(Cl)cc4)c4c(sc(C)c4C)-n4c(C)nnc43)CC2)C(C)(C)C)cc1 [Example 102] | 34.5 |
| 0.1 to 1 | Cc1ncsc1-c1ccc(CNC(=O)[C@@H]2C[C@@H](O)CN2C(=O)[C@@H](NC(=O)CCN2CCN(CCNC(=O)C[C@@H]3N=C(c4ccc(Cl)cc4)c4c(sc(C)c4C)-n4c(C)nnc43)CC2)C(C)(C)C)cc1 [Example 103] | 62.5 |
| > 1 | Cc1ncsc1-c1ccc(CNC(=O)[C@@H]2C[C@@H](O)CN2C(=O)[C@@H](NC(=O)COCCOCCOCCNC(=O)C[C@H]2N=C(c3ccc(Cl)cc3)c3c(sc(C)c3C)-n3c(C)nnc32)C(C)(C)C)cc1 [Example 104] | < 5 |
| 0.01 to 0.1 | Cc1ncsc1-c1ccc(CNC(=O)[C@@H]2C[C@@H](O)CN2C(=O)[C@@H](NC(=O)COCCCOCCNC(=O)CC2N=C(c3ccc(Cl)cc3)c3c(sc(C)c3C)-n3c(C)nnc32)C(C)(C)C)cc1 (some centres unmarked) [Example 105] | 97 |
| > 1 | Cc1ncsc1-c1ccc(CNC(=O)[C@@H]2C[C@@H](O)CN2C(=O)[C@@H](NC(=O)COCCCOCCNC(=O)C[C@H]2N=C(c3ccc(Cl)cc3)c3c(sc(C)c3C)-n3c(C)nnc32)C(C)(C)C)cc1 [Example 106] | < 5 |
| 0.01 to 0.1 | Cc1ncsc1-c1ccc(CNC(=O)C2C[C@@H](O)CN2C(=O)[C@@H](NC(=O)COc2ccccc2OCCCNC(=O)C[C@@H]2N=C(c3ccc(Cl)cc3)c3c(sc(C)c3C)-n3c(C)nnc32)C(C)(C)C)cc1 (some centres unmarked) [Example 107] | 86.6 |
| 0.1 to 1 | Cc1ncsc1-c1ccc([C@H](C)NC(=O)[C@@H]2C[C@@H](O)CN2C(=O)[C@@H](NC(=O)COCCOCCCOc2ccc([C@H](C)NC(=O)CC3N=C(c4ccc(Cl)cc4)c4c(sc(C)c4C)-n4c(C)nnc43)cc2)C(C)(C)C)cc1 (some centres unmarked) [Example 108] | 95.4 |
| > 1 | Cc1ncsc1-c1ccc([C@H](C)NC(=O)[C@@H]2C[C@@H](O)CN2C(=O)[C@@H](NC(=O)COCCOCCCOc2ccc([C@H](C)NC(=O)C[C@H]3N=C(c4ccc(Cl)cc4)c4c(sc(C)c4C)-n4c(C)nnc43)cc2)C(C)(C)C)cc1 [Example 109] | < 5 |
| > 1 | CNC[C@H](NC(=O)[C@@H]1C[C@@H](O)CN1C(=O)[C@@H](NC(=O)COCCCOCCNC(=O)C[C@@H]1N=C(c2ccc(Cl)cc2)c2c(sc(C)c2C)-n2c(C)nnc21)C(C)(C)C)c1ccc(-c2scnc2C)cc1 [Example 110] | 7.14 |
